Patent US9056176B2, “1-phenyl-2-pyridinyl alkyl alcohol compounds as phosphodiesterase inhibitors” (CHIESI FARMACEUTICI S.P.A., priority 2009, dated 2015)

Experiments:
[1] = tested on: LPS-induced TNF-α release in human PBMCs (PDE4 inhibitory activity); assay: LPS-induced TNF-α release in peripheral blood mononuclear cells (PBMCs) assay; assay type: cell-based; conditions: PBMC, LPS 3 ng/ml, 18 hours, TNF-α by ELISA, mean ± 95% confidence limits, read-out: molar concentration producing 50% inhibition of LPS-induced TNF-α release (IC50)
Experimental: The assay, which is based on the known inhibitory activity exerted by PDE4 inhibitors on the lipopolyshaccarides (LPS)-induced tumour necrosis factor-alpha (TNF-α release in peripheral blood mononuclear cells (PBMCs), is performed according to a method previously described (Hatzelmann A et al., J. Pharmacol. Exp. Ther., 2001; 297:267-279; and Draheim R et al., J. Pharmacol. Exp. Ther., 2004; 308:555-563, both of which are incorporated herein by reference in their entireties.
Cryopreserved human PBMCs, (100 μl/well) are incubated in 96-well plates (10^5 cells/well), for 30 minutes, in the presence or absence (50 microl) of the test compounds whose concentrations range from 10^−12 M to 10^−6 M. Subsequently, LPS (3 ng/ml) is added.
After 18 hours incubation at 37° C. in a humidified incubator under an atmosphere of 95% air and 5% CO2, culture medium is collected and TNF-α is measured by ELISA.
The effects of the tested compounds are calculated as percentage of inhibition of TNF-α release, assuming LPS-induced TNF-α production in the absence of inhibitor compound as 100% and basal TNF-α production of PBMCs in the absence of LPS as 0%.

[2] = tested on: OA-induced contraction in guinea-pig trachea; assay: OA-induced contraction of tracheal preparations from OA-sensitised guinea pigs (organ bath); conditions: 30-minute pre-treatment
Experimental: Zig-zag tracheal segments are obtained from male Ovoalbumin (OA)-sensitised guinea pigs and two preparations are obtained from a trachea. Each preparation is placed in 20-ml organ bath filled with oxygenated (O2 95% and CO2 5%) normal Krebs-Henseleit solution and maintained at 37° C. Tracheal preparations are connected to isometric force transducers under a resting tone of 1 g. After an equilibration period of 60 minutes, tracheal preparations are pretreated for 30 minutes with C1 (10^-7 M), Carmoterol (3*10^-10 M), the association C1 and Carmoterol or vehicle, respectively, followed by cumulative administration of OA (10^−10-10^−5 g/ml). At the end of the OA administration a maximal concentration of carbachol (10^−5 M) is added to obtain the maximal contraction of each preparation. The effects are expressed as percent values of the carbachol-induced maximal response (100%).

SMILES	IC50 [1] [nM]	inhibition at 0.1 µM ([2]; Cavia porcellus, C1 10^−7 M) [%]	inhibition of the OA-induced contraction ([2]; Carmoterol 3*10^-10 M) [%]
CS(=O)(=O)Nc1ccc(C(=O)OC(Cc2c(Cl)cncc2Cl)c2ccc(OC(F)F)c(OCC3CC3)c2)cc1OCC1CC1 (single isomer, unassigned; (-)) [Compound C1, (−)-3-Cyclopropylmethoxy-4-methanesulfonylamino-benzoic acid 1-(3-cyclopropylmethoxy-4-difluoromethoxy-phenyl)-2-(3,5-dichloro-pyridin-4-yl)-ethyl ester]	0.06 to 4.4	23	
COc1ccc(C[C@@H](C)NC[C@H](O)c2ccc(O)c3[nH]c(=O)ccc23)cc1 [Carmoterol, carmoterol, reference compound]			18
